According to patent US20070129342A1, “Compositions Containing Ansamycin” (priority 2005, published 2007):
Like-named read-outs stand apart in the source and are kept apart here. One block for each compound: values may come before it.

How the values were obtained:
[1] = assay type: physicochemical
Method: It should be noted that other secondary emulsifiers (e.g., dimyristylphosphatidylglycerol (DMPG), Solutol HS15, and Tween 80) were tested at refrigerated temperature for droplet size stability improvement.

[2] = adult patients, cited from earlier work; for Cmax: read-out: Plasma Cmax

Compound: CCCCCCCCCCCCCC(=O)OCC(COP(=O)(O)OCC(O)CO)OC(=O)CCCCCCCCCCCCC (centres unmarked) [DMPG, dimyristylphosphatidylglycerol]
- effect of secondary emulsifier on droplet size stability of the emulsion [1]: resulted in a viscous emulsion that would be difficult to draw a syringe

Compound: C=CCNC1=C2C[C@@H](C)C[C@H](OC)[C@H](O)[C@@H](C)/C=C(\C)[C@H](OC(N)=O)[C@@H](OC)/C=C\C=C(/C)C(=O)NC(=CC1=O)C2=O [Formulation 17-AAG, 17-(allylamino)-17-demethoxygeldanamycin]
- Cmax ([2]; at 40 mg/m^2): 1860 ± 660 nM
- Cmax ([2]; at 56 mg/m^2): 3170 ± 1310 nM
- maximum tolerated dose (MTD) ([2]; daily 1-hour infusion for 5 days every three weeks): 40 mg/m^2
- clearance ([2]; mean±SD): 41.0 ± 13.5 L/h
- terminal half-life ([2]; mean±SD): 2.5 ± 0.5 h

- effect of secondary emulsifier on droplet size stability of the emulsion [1]: showed improved stability
Compound: CCCCCCCC/C=C\CCCCCCCC(=O)O [oleic acid, cis-9-octadecenoic acid]

Compound: Tween 80
- effect of secondary emulsifier on droplet size stability of the emulsion [1]: did not improve the droplet size stability
